From publication PMC9820316, “Novel Arylpiperazine Derivatives of Salicylamide with α1-Adrenolytic Properties Showed Antiarrhythmic and Hypotensive Properties in Rats” (International Journal of Molecular Sciences, 2022)

Tested on: normal ECG in rats
Experiment: Effect on a normal electrocardiogram in rats
Assay type: in vivo, rat
Settings: for effect on the heart rate during the ECG recording / HR—heart rate / PQ interval / QRS complex / QTc (Bazzett's formula) / decrease of the heart rate: 5 mg/kg iv; for HR—heart rate / PQ interval / QRS complex / QTc (Bazzett's formula): mean ± SD; for PQ interval / QRS complex / QTc (Bazzett's formula): in ms (unit assumed); for dose affecting the heart rate relative to the ED50 value in the adrenaline-induced arrhythmia model: 5 mg/kg iv vs ED50
Description: The procedure was performed to exclude the negative effects of the tested compounds on the normal ECG, according to the method described earlier. […] Firstly, animals were anesthetized with thiopental (75 mg/kg ip). […] The influence on PQ, QTc interval, QRS complex, and heart rate was evaluated. The Bazzett’s formula: QTc = QT/√RR was used to calculate QTc. All the studied compounds were administered at a dose of 5 mg/kg.

[1] = 0 min (prior to administration)

Row | Structure (SMILES) | effect on the heart rate during the ECG recording | HR—heart rate [1] | PQ interval [1] | QRS complex [1] | QTc (Bazzett's formula) [1] | HR—heart rate (5 min) | PQ interval (5 min) | QRS complex (5 min) | QTc (Bazzett's formula) (5 min) | HR—heart rate (10 min) | PQ interval (10 min) | QRS complex (10 min) | QTc (Bazzett's formula) (10 min) | HR—heart rate (15 min) | PQ interval (15 min) | QRS complex (15 min) | QTc (Bazzett's formula) (15 min) | dose affecting the heart rate relative to the ED50 value in the adrenaline-induced arrhythmia model [fold] | decrease of the heart rate (10th min after the injection) [%] | decrease of the heart rate (15th min after the injection) [%] | further results
1 | Cl.NC(=O)c1ccccc1OCCCCCCN1CCN(c2cccc(Cl)c2)CC1 [JJGW03, 2-{6-[4-(3-chlorophenyl)piperazin-1-ylo]hexoxy}benzamide hydrochloride] | did not affect the heart rate | 286.6 ± 45.7 | 41.6 ± 2.3 | 39.6 ± 4.7 | 177.6 ± 12.0 | 289.1 ± 20.2 | 41.4 ± 1.6 | 39.3 ± 3.9 | 188.7 ± 16.3 | 279.9 ± 15.7 | 40.2 ± 1.7 | 40.8 ± 7.1 | 174.8 ± 7.3 | 271.9 ± 18.2 | 40.0 ± 0.5 | 40.4 ± 5.2 | 178.1 ± 15.0 | – | – | – | –
2 | COc1ccccc1N1CCN(Cc2cccc(COc3ccccc3C(N)=O)c2)CC1.Cl [JJGW11, 2-[(3-{[4-(2-metoxyphenyl)piperazin-1-ylo]methyl}phenyl)metoxy}benzamide hydrochloride] | – | 281.3 ± 50.8 | 45.8 ± 7.2 | 38.5 ± 3.6 | 188.2 ± 12.3 | 266.5 ± 58.2 | 47.1 ± 5.7 | 41.3 ± 3.0 | 197.3 ± 18.6 | 258.8 ± 55.0 | 47.4 ± 5.0 | 42.4 ± 4.3 | 193.6 ± 22.0 | 252.4 ± 50.3 | 47.6 ± 5.1 | 41.7 ± 5.4 | 184.1 ± 16.9 | 26 | 8 | 10 | –
3 | Cl.NC(=O)c1ccccc1OCCCCCN1CCN(c2cccc(Cl)c2)CC1 [JJGW02, 2-{5-[4-(3-chlorophenyl)piperazin-1-ylo]pentoxy}benzamide hydrochloride] | – | 311.1 ± 24.4 | 42.6 ± 2.0 | 36.0 ± 1.1 | 183.3 ± 7.1 | 278.7 ± 37.0 | 41.7 ± 1.8 | 35.2 ± 1.2 | 175.4 ± 14.0 | 265.0 ± 30.1 | 42.2 ± 1.6 | 36.1 ± 1.8 | 173.2 ± 15.7 | 262.0 ± 37.3 | 44.8 ± 5.9 | 35.2 ± 0.7 | 175.1 ± 16.0 | 11 | 15 | 16 | decrease of the heart rate (5th min after the injection): 10%
4 | COc1ccccc1N1CCN(Cc2ccc(COc3ccccc3C(N)=O)cc2)CC1.Cl [JJGW12, 2-[(4-{[4-(2-metoxyphenyl)piperazin-1-ylo]methyl}phenyl)metoxy}benzamide hydrochloride] | did not affect the heart rate | 254.6 ± 41.2 | 44.1 ± 6.2 | 41.9 ± 2.1 | 190.8 ± 15.2 | 256.8 ± 47.1 | 43.6 ± 1.2 | 44.5 ± 3.6 | 194.3 ± 16.8 | 255.2 ± 53.6 | 45.9 ± 2.4 | 44.2 ± 2.3 | 190.3 ± 25.9 | 250.2 ± 51.5 | 45.5 ± 3.1 | 45.2 ± 5.9 | 195.8 ± 25.5 | – | – | – | –
5 | Cl.NC(=O)c1ccccc1OCCCCN1CCN(c2cccc(Cl)c2)CC1 [JJGW01, 2-{4-[4-(3-chlorophenyl)piperazin-1-ylo]butoxy}benzamide hydrochloride] | did not affect the heart rate | 311.8 ± 11.6 | 42.3 ± 3.4 | 49.3 ± 7.8 | 196.0 ± 14.2 | 318.0 ± 28.5 | 42.3 ± 2.0 | 46.7 ± 5.6 | 193.7 ± 14.9 | 324.6 ± 23.1 | 41.3 ± 2.4 | 48.0 ± 4.2 | 186.6 ± 9.0 | 324.0 ± 23.1 | 41.0 ± 3.3 | 50.3 ± 4.6 | 190.6 ± 14.5 | – | – | – | –
